Paper PMC9668928, “Zandelisib (ME-401) in Japanese patients with relapsed or refractory indolent non-Hodgkin’s lymphoma: an open-label, multicenter, dose-escalation phase 1 study” (International Journal of Hematology, 2022)

Tested on: Japanese patients with R/R iNHL
Assay: Phase 1 dose-escalation study: safety and tolerability (TEAEs, DLTs)
Assay type: in vivo
Excerpt: Japanese patients aged ≥ 20 years with R/R iNHL histologically confirmed as FL, nodal MZL, extra-nodal MZL of mucosa-associated lymphoid tissue, small lymphocytic lymphoma, lymphoplasmacytic lymphoma, Waldenström’s macroglobulinemia, or equivalent, according to World Health Organization classification, were eligible for this study. Other key eligibility criteria included being PI3K inhibitor therapy-naïve and an Eastern Cooperative Oncology Group performance status of 0 or 1. Further details of inclusion and exclusion criteria are provided in Supplementary Table 1.
This was a multicenter, open-label, dose-escalation, phase 1 study in Japan. All patients received oral zandelisib once daily at the same time each day, at least 1 h before or 2 h after a meal (CS: continuous schedule). Each treatment cycle was 28 days. Definitions of the DLTs described in this study can be found in Supplementary Table 2. The observation period for DLTs was from day 1 of Cycle 1 to day 1 of Cycle 2. Zandelisib was administered until disease progression or unacceptable toxicity. In the event of an AE, patients could be switched to IDT. In the case of disease progression while receiving IDT, patients could be switched back to CS per the investigator’s discretion.
A starting dose of 45 mg was set for investigating patient safety. This study adopted a standard 3 + 3 design. […] If DLTs occurred in 2 or more patients, the study was planned to be suspended pending a safety evaluation. If a DLT occurred in 1 patient, 3 further patients were added to cohort 1. If DLTs occurred in 0/3 or 1/6 patients in cohort 1, dosing in cohort 2 commenced (n = 6; 60 mg/day). If the incidence of DLTs in cohort 2 was ≤ 1/6, the maximum tolerated dose was not determined, and the dose in cohort 2 was to be selected as the recommended Japanese phase 2 dose.
The primary endpoint was the safety [number of patients with treatment-emergent adverse events (TEAEs), based on Common Terminology Criteria for Adverse Events version 5.0] and tolerability (including laboratory values, vital signs, and electrocardiogram performance) of zandelisib in Japanese patients. Hepatobiliary disorder, aspartate/alanine (AST/ALT) increased, diarrhea/colitis, organizing pneumonia, stomatitis, or rash were defined as irAEs in this manuscript. Secondary endpoints included PK (plasma concentrations and PK parameters) and the efficacy of zandelisib. […] The PK parameters for Cycle 1 day 1 and Cycle 2 day 1 were calculated for each patient by non-compartmental analysis. PK parameters included maximum plasma drug concentration (Cmax), area under the plasma concentration–time curve (AUC) from time zero to the last measurable point (AUC0–t), the AUC from time zero to infinity (AUC0-inf), and terminal half-life (t1/2).

## CN1CCC(c2ccccc2CC(C)(C)Nc2nc(N3CCOCC3)nc(-n3c(C(F)F)nc4ccccc43)n2)CC1 [zandelisib]
Total, N = 9
  TEAE Cytomegalovirus viremia, Grade ≥ 3: 0 n (%)
  TEAE Decreased appetite, All grades: 1 (11.1) n (%)
  TEAE Decreased appetite, Grade ≥ 3: 1 (11.1) n (%)
  TEAE Diarrhea, All grades: 4 (44.4) n (%)
  TEAE Diarrhea, Grade ≥ 3: 3 (33.3) n (%)
  TEAE Drug hypersensitivity, All grades: 1 (11.1) n (%)
  TEAE Drug hypersensitivity, Grade ≥ 3: 0 n (%)
  TEAE Drug-induced liver injury, All grades: 1 (11.1) n (%)
  TEAE Drug-induced liver injury, Grade ≥ 3: 1 (11.1) n (%)
  TEAE Dry eye, All grades: 1 (11.1) n (%)
  TEAE Dry eye, Grade ≥ 3: 0 n (%)
  TEAE Dry skin, All grades: 2 (22.2) n (%)
  TEAE Dry skin, Grade ≥ 3: 0 n (%)
  TEAE Dysgeusia, All grades: 1 (11.1) n (%)
  TEAE Dysgeusia, Grade ≥ 3: 0 n (%)
  TEAE Dyspnea, All grades: 1 (11.1) n (%)
  TEAE Dyspnea, Grade ≥ 3: 1 (11.1) n (%)
  TEAE Ear and labyrinth disorders (SOC), All grades: 1 (11.1) n (%)
  TEAE Ear and labyrinth disorders (SOC), Grade ≥ 3: 0 n (%)
  TEAE Eczema, All grades: 1 (11.1) n (%)
  TEAE Eczema, Grade ≥ 3: 0 n (%)
  TEAE Eosinophil count increased, All grades: 1 (11.1) n (%)
  TEAE Eosinophil count increased, Grade ≥ 3: 0 n (%)
  TEAE Erythema multiforme, All grades: 1 (11.1) n (%)
  TEAE Erythema multiforme, Grade ≥ 3: 0 n (%)
  TEAE Eye disorders (SOC), All grades: 2 (22.2) n (%)
  TEAE Eye disorders (SOC), Grade ≥ 3: 0 n (%)
  TEAE Flank pain, All grades: 1 (11.1) n (%)
  TEAE Flank pain, Grade ≥ 3: 0 n (%)
  TEAE GGT increased, All grades: 1 (11.1) n (%)
  TEAE GGT increased, Grade ≥ 3: 1 (11.1) n (%)
  TEAE Gastrointestinal disorders (SOC), All grades: 6 (66.7) n (%)
  TEAE Gastrointestinal disorders (SOC), Grade ≥ 3: 4 (44.4) n (%)
  TEAE General disorders and administration site conditions (SOC), All grades: 1 (11.1) n (%)
  TEAE General disorders and administration site conditions (SOC), Grade ≥ 3: 0 n (%)
  TEAE Hepatic function abnormal, All grades: 2 (22.2) n (%)
  TEAE Hepatic function abnormal, Grade ≥ 3: 1 (11.1) n (%)
  TEAE Hepatobiliary disorders (SOC), All grades: 3 (33.3) n (%)
  TEAE Hepatobiliary disorders (SOC), Grade ≥ 3: 2 (22.2) n (%)
  TEAE Herpes simplex, All grades: 1 (11.1) n (%)
  TEAE Herpes simplex, Grade ≥ 3: 0 n (%)
  TEAE Herpes zoster, All grades: 1 (11.1) n (%)
  TEAE Herpes zoster, Grade ≥ 3: 0 n (%)
  TEAE Hypoesthesia, All grades: 1 (11.1) n (%)
  TEAE Hypoesthesia, Grade ≥ 3: 0 n (%)
  TEAE Hypogammaglobulinemia, All grades: 2 (22.2) n (%)
  TEAE Hypogammaglobulinemia, Grade ≥ 3: 0 n (%)
  TEAE Immune system disorders (SOC), All grades: 3 (33.3) n (%)
  TEAE Immune system disorders (SOC), Grade ≥ 3: 0 n (%)
  TEAE Infections and infestations (SOC), All grades: 6 (66.7) n (%)
  TEAE Infections and infestations (SOC), Grade ≥ 3: 0 n (%)
  TEAE Infusion site extravasation, All grades: 1 (11.1) n (%)
  TEAE Infusion site extravasation, Grade ≥ 3: 0 n (%)
  TEAE Insomnia, All grades: 1 (11.1) n (%)
  TEAE Insomnia, Grade ≥ 3: 0 n (%)
  TEAE Investigations (SOC), All grades: 9 (100.0) n (%)
  TEAE Investigations (SOC), Grade ≥ 3: 6 (66.7) n (%)
  TEAE Joint effusion, All grades: 1 (11.1) n (%)
  TEAE Joint effusion, Grade ≥ 3: 0 n (%)
  TEAE Lymphocyte count decreased, All grades: 3 (33.3) n (%)
  TEAE Lymphocyte count decreased, Grade ≥ 3: 1 (11.1) n (%)
  TEAE Metabolism and nutrition disorders (SOC), All grades: 1 (11.1) n (%)
  TEAE Metabolism and nutrition disorders (SOC), Grade ≥ 3: 1 (11.1) n (%)
  TEAE Muscle spasms, All grades: 1 (11.1) n (%)
  TEAE Muscle spasms, Grade ≥ 3: 0 n (%)
  TEAE Musculoskeletal and connective tissue disorders (SOC), All grades: 4 (44.4) n (%)
  TEAE Musculoskeletal and connective tissue disorders (SOC), Grade ≥ 3: 0 n (%)
  TEAE Nasopharyngitis, All grades: 5 (55.6) n (%)
  TEAE Nasopharyngitis, Grade ≥ 3: 0 n (%)
  TEAE Nausea, All grades: 3 (33.3) n (%)
  TEAE Nausea, Grade ≥ 3: 0 n (%)
  TEAE Nervous system disorders (SOC), All grades: 1 (11.1) n (%)
  TEAE Nervous system disorders (SOC), Grade ≥ 3: 0 n (%)
  TEAE Neutrophil count decreased, All grades: 8 (88.9) n (%)
  TEAE Neutrophil count decreased, Grade ≥ 3: 5 (55.6) n (%)
  TEAE Oral herpes, All grades: 1 (11.1) n (%)
  TEAE Oral herpes, Grade ≥ 3: 0 n (%)
  TEAE Organizing pneumonia, All grades: 1 (11.1) n (%)
  TEAE Organizing pneumonia, Grade ≥ 3: 1 (11.1) n (%)
  TEAE Oropharyngeal pain, All grades: 2 (22.2) n (%)
  TEAE Oropharyngeal pain, Grade ≥ 3: 0 n (%)
  TEAE Pancreatitis, All grades: 1 (11.1) n (%)
  TEAE Pancreatitis, Grade ≥ 3: 1 (11.1) n (%)
  TEAE Pharyngeal paresthesia, All grades: 1 (11.1) n (%)
  TEAE Pharyngeal paresthesia, Grade ≥ 3: 0 n (%)
  TEAE Pruritus, All grades: 1 (11.1) n (%)
  TEAE Pruritus, Grade ≥ 3: 0 n (%)
  TEAE Psychiatric disorders (SOC), All grades: 1 (11.1) n (%)
  TEAE Psychiatric disorders (SOC), Grade ≥ 3: 0 n (%)
  TEAE Rash maculopapular, All grades: 5 (55.6) n (%)
  TEAE Rash maculopapular, Grade ≥ 3: 1 (11.1) n (%)
  TEAE Rash, All grades: 4 (44.4) n (%)
  TEAE Rash, Grade ≥ 3: 0 n (%)
  TEAE Renal and urinary disorders (SOC), All grades: 1 (11.1) n (%)
  TEAE Renal and urinary disorders (SOC), Grade ≥ 3: 0 n (%)
  TEAE Renal impairment, All grades: 1 (11.1) n (%)
  TEAE Renal impairment, Grade ≥ 3: 0 n (%)
  TEAE Respiratory, thoracic, and mediastinal disorders (SOC), All grades: 4 (44.4) n (%)
  TEAE Respiratory, thoracic, and mediastinal disorders (SOC), Grade ≥ 3: 1 (11.1) n (%)
  TEAE Skin and subcutaneous tissue disorders (SOC), All grades: 9 (100.0) n (%)
  TEAE Skin and subcutaneous tissue disorders (SOC), Grade ≥ 3: 1 (11.1) n (%)
  TEAE Stomatitis, All grades: 2 (22.2) n (%)
  TEAE Stomatitis, Grade ≥ 3: 1 (11.1) n (%)
  TEAE Subcutaneous abscess, All grades: 1 (11.1) n (%)
  TEAE Subcutaneous abscess, Grade ≥ 3: 0 n (%)
  TEAE Tinnitus, All grades: 1 (11.1) n (%)
  TEAE Tinnitus, Grade ≥ 3: 0 n (%)
  TEAE Urticaria, All grades: 1 (11.1) n (%)
  TEAE Urticaria, Grade ≥ 3: 0 n (%)
  TEAE Vomiting, All grades: 2 (22.2) n (%)
  TEAE Vomiting, Grade ≥ 3: 0 n (%)
  TEAE WBC count decreased, All grades: 4 (44.4) n (%)
  TEAE WBC count decreased, Grade ≥ 3: 0 n (%)
Cohort 1, 45 mg/day
  discontinued treatment due to TEAEs: 2 patients
Cohort 2, 60 mg/day
  discontinued treatment due to TEAEs: 2 patients
During IDT
  discontinuation due to irAEs: no discontinuation due to irAEs occurred during IDT
  recurrence of Grade ≥ 3 irAEs and any grade irAEs leading to drug interruption: 4/8
